Test results as given in ChEMBL document CHEMBL1201862, “PubChem BioAssay data set” (2004).
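Results reflect a 48-hour exposure of cells in 96-well plates to compound at five concentrations. GI50 marks 50% less growth.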 Active and inactive are the calls of the source. No stated cut-off is given here; in the data, active = GI50 up to about 1.1 µM and inactive = higher.

Experiments:
Test in all cases: NCI tumour cell line growth inhibition, 48 h
[1] = tested on: HOP-18
[2] = tested on: HT-29
[3] = tested on: OVCAR-5
[4] = tested on: OVCAR-3
[5] = tested on: OVCAR-4
[6] = tested on: IGROV-1
[7] = tested on: UACC-257
[8] = tested on: ACHN
[9] = tested on: SNB-78
[10] = tested on: HCC 2998
[11] = tested on: CAKI-1
[12] = tested on: NCI-H23
[13] = tested on: M19-MEL
[14] = tested on: SK-MEL-28
[15] = tested on: KM12
[16] = tested on: CCRF-CEM
[17] = tested on: SK-OV-3
[18] = tested on: COLO 205
[19] = tested on: HCT-15
[20] = tested on: A498
[21] = tested on: TK-10
[22] = tested on: SF-268
[23] = tested on: LOX IMVI
[24] = tested on: RXF 631
[25] = tested on: SN12C
[26] = tested on: U-251
[27] = tested on: DMS-114
[28] = tested on: MOLT-4
[29] = tested on: RXF 393
[30] = tested on: OVCAR-8
[31] = tested on: K562
[32] = tested on: DMS-273
[33] = tested on: SNB-75
[34] = tested on: SK-MEL-2
[35] = tested on: SK-MEL-5
[36] = tested on: UACC-62
[37] = tested on: DLD-1
[38] = tested on: SW-620
[39] = tested on: M14
[40] = tested on: HL-60
[41] = tested on: NCI-H460
[42] = tested on: HCT-116
[43] = tested on: EKVX
[44] = tested on: SNB-19
[45] = tested on: 786-0
[46] = tested on: HOP-62
[47] = tested on: SF-295
[48] = tested on: SF-539
[49] = tested on: HOP-92
[50] = tested on: A549
[51] = tested on: UO-31
[52] = tested on: NCI-H226
[53] = tested on: LXFL 529
[54] = tested on: Malme-3M
[55] = tested on: SR
[56] = tested on: KM-20L2
[57] = tested on: NCI-H522
[58] = tested on: RPMI-8226

CN(C)CCNC(=O)c1cccc2nc3ccc4ccccc4c3nc12
GI50 [1]: 197 nM (active) | GI50 [2]: 49.9 nM (active) | GI50 [3]: 210 nM (active) | GI50 [4]: 169 nM (active) | GI50 [5]: 114 nM (active) | GI50 [6]: 81.7 nM (active) | GI50 [7]: 212 nM (active) | GI50 [8]: 65.8 nM (active) | GI50 [9]: 138 nM (active) | GI50 [10]: 126 nM (active) | GI50 [11]: 51.8 nM (active) | GI50 [12]: 94.2 nM (active) | GI50 [13]: 94.6 nM (active) | GI50 [14]: 290 nM (active) | GI50 [15]: 131 nM (active) | GI50 [16]: 67.3 nM (active) | GI50 [17]: 144 nM (active) | GI50 [18]: 43.4 nM (active) | GI50 [19]: 59.8 nM | GI50 [20]: 83.2 nM (active) | GI50 [21]: 139 nM (active) | GI50 [22]: 59.2 nM (active) | GI50 [23]: 72.6 nM (active) | GI50 [24]: 40.5 nM (active) | GI50 [25]: 47.8 nM (active) | GI50 [26]: 112 nM (active) | GI50 [27]: 121 nM (active) | GI50 [28]: 32.4 nM (active) | GI50 [29]: 58.3 nM (active) | GI50 [30]: 57.4 nM (active) | GI50 [31]: 93.1 nM (active) | GI50 [32]: 36.2 nM (active) | GI50 [33]: 120 nM (active) | GI50 [34]: 177 nM (active) | GI50 [35]: 105 nM (active) | GI50 [36]: 126 nM (active) | GI50 [37]: 47 nM (active) | GI50 [38]: 18.1 nM (active) | GI50 [39]: 200 nM (active) | GI50 [40]: 114 nM (active) | GI50 [41]: 26.6 nM (active) | GI50 [42]: 24.7 nM (active) | GI50 [43]: 126 nM (active) | GI50 [44]: 132 nM (active) | GI50 [45]: 125 nM (active) | GI50 [46]: 147 nM (active) | GI50 [47]: 98.9 nM (active) | GI50 [48]: 65.2 nM (active) | GI50 [49]: 95.7 nM (active) | GI50 [50]: 48.1 nM (active) | GI50 [51]: 68.5 nM (active) | GI50 [52]: 178 nM (active)

C#CC[C@]12CC(=O)CC[C@H]1CC1(C2)OCCO1
GI50 [1]: > 100000 nM (inactive) | GI50 [4]: > 100000 nM (inactive) | GI50 [5]: > 100000 nM (inactive) | GI50 [6]: > 100000 nM (inactive) | GI50 [7]: > 100000 nM (inactive) | GI50 [53]: > 100000 nM (inactive) | GI50 [8]: > 100000 nM (inactive) | GI50 [9]: > 100000 nM (inactive) | GI50 [10]: > 100000 nM (inactive) | GI50 [11]: > 100000 nM (inactive) | GI50 [13]: > 100000 nM (inactive) | GI50 [14]: > 100000 nM (inactive) | GI50 [54]: > 100000 nM (inactive) | GI50 [15]: > 100000 nM (inactive) | GI50 [16]: > 100000 nM (inactive) | GI50 [17]: > 100000 nM (inactive) | GI50 [18]: > 100000 nM (inactive) | GI50 [19]: > 100000 nM | GI50 [20]: > 100000 nM (inactive) | GI50 [21]: > 100000 nM (inactive) | GI50 [22]: > 100000 nM (inactive) | GI50 [24]: > 100000 nM (inactive) | GI50 [25]: > 100000 nM (inactive) | GI50 [26]: > 100000 nM (inactive) | GI50 [27]: > 100000 nM (inactive) | GI50 [28]: > 100000 nM (inactive) | GI50 [29]: > 100000 nM (inactive) | GI50 [55]: > 100000 nM (inactive) | GI50 [30]: > 100000 nM (inactive) | GI50 [56]: > 100000 nM (inactive) | GI50 [57]: > 100000 nM (inactive) | GI50 [31]: > 100000 nM (inactive) | GI50 [32]: > 100000 nM (inactive) | GI50 [33]: > 100000 nM (inactive) | GI50 [34]: > 100000 nM (inactive) | GI50 [35]: > 100000 nM (inactive) | GI50 [36]: > 100000 nM (inactive) | GI50 [37]: > 100000 nM (inactive) | GI50 [38]: > 100000 nM (inactive) | GI50 [39]: > 100000 nM (inactive) | GI50 [40]: > 100000 nM (inactive) | GI50 [58]: > 100000 nM (inactive) | GI50 [41]: > 100000 nM (inactive) | GI50 [42]: > 100000 nM (inactive) | GI50 [44]: > 100000 nM (inactive) | GI50 [45]: > 100000 nM (inactive) | GI50 [46]: > 100000 nM (inactive) | GI50 [48]: > 100000 nM (inactive) | GI50 [50]: > 100000 nM (inactive) | GI50 [51]: > 100000 nM (inactive) | GI50 [52]: > 100000 nM (inactive)
